± gives the expanded uncertainty stated by the source.
Conditions: for vapor or sublimation pressure: Liquid; for molar volume: Gas, isochoric method

FC(C(F)(F)F)C(F)(F)F [1,1,1,2,3,3,3-heptafluoropropane]
Conditions | vapor or sublimation pressure [kPa]
235.07 K | 35.5 ± 1.1
240.23 K | 46.5 ± 1.1
245.31 K | 59.9 ± 1.1
250.44 K | 76.3 ± 1.1
255.11 K | 94.1 ± 1.1
260.28 K | 117.5 ± 1.1
265.66 K | 146.4 ± 1.1
270.55 K | 177.2 ± 1.1
275.23 K | 211.1 ± 1.1
280.19 K | 252.4 ± 1.1
285.44 K | 302.4 ± 1.2
290.14 K | 353.3 ± 1.2
295.27 K | 416.1 ± 1.2
300.24 K | 484.6 ± 1.2
305.29 K | 562.6 ± 1.3
310.37 K | 650.5 ± 1.3
315.41 K | 747.3 ± 1.3
320.07 K | 845.9 ± 1.4
325.19 K | 965.7 ± 1.4
329.97 K | 1088.3 ± 1.5
335.04 K | 1230.8 ± 1.6
339.99 K | 1383 ± 1.6
345.15 K | 1556.8 ± 1.7
350.26 K | 1744.7 ± 1.8
355.11 K | 1939 ± 1.9
360.18 K | 2159.7 ± 2
365.27 K | 2401.5 ± 2.1

Conditions | molar volume [m3/mol]
293.37 K, 214.8 kPa | 0.0106 ± 5e-06
298.02 K, 297.6 kPa | 0.007594 ± 3e-06
298.06 K, 219 kPa | 0.0106 ± 5e-06
298.58 K, 387 kPa | 0.00567 ± 2e-06
303.22 K, 304.1 kPa | 0.007596 ± 3e-06
303.42 K, 223.7 kPa | 0.0106 ± 5e-06
303.52 K, 484.7 kPa | 0.004479 ± 2e-06
303.65 K, 395.8 kPa | 0.005671 ± 2e-06
308.37 K, 228 kPa | 0.0106 ± 5e-06
308.57 K, 310.7 kPa | 0.007598 ± 3e-06
308.57 K, 562.5 kPa | 0.003857 ± 2e-06
308.67 K, 496.4 kPa | 0.00448 ± 2e-06
308.69 K, 404.7 kPa | 0.005672 ± 2e-06
313.63 K, 507.6 kPa | 0.004481 ± 2e-06
313.69 K, 413.2 kPa | 0.005673 ± 2e-06
314.14 K, 232.7 kPa | 0.01061 ± 5e-06
314.16 K, 317.9 kPa | 0.0076 ± 3e-06
314.22 K, 577.9 kPa | 0.003858 ± 2e-06
318.62 K, 518.9 kPa | 0.004482 ± 2e-06
318.66 K, 421.6 kPa | 0.005675 ± 2e-06
319.44 K, 237.1 kPa | 0.01061 ± 5e-06
319.6 K, 324.5 kPa | 0.007601 ± 3e-06
319.97 K, 593.4 kPa | 0.003859 ± 2e-06
323.74 K, 530.4 kPa | 0.004483 ± 2e-06
323.82 K, 430.2 kPa | 0.005676 ± 2e-06
324.15 K, 241.1 kPa | 0.01061 ± 5e-06
324.21 K, 329.9 kPa | 0.007603 ± 3e-06
324.39 K, 605.1 kPa | 0.003859 ± 2e-06
328.01 K, 244.4 kPa | 0.01061 ± 5e-06
328.19 K, 334.6 kPa | 0.007604 ± 3e-06
328.2 K, 614.9 kPa | 0.00386 ± 2e-06
328.46 K, 540.6 kPa | 0.004484 ± 2e-06
328.9 K, 438.8 kPa | 0.005677 ± 2e-06
333.39 K, 248.8 kPa | 0.01062 ± 5e-06
333.4 K, 551.4 kPa | 0.004485 ± 2e-06
333.62 K, 341.1 kPa | 0.007606 ± 3e-06
333.92 K, 629.9 kPa | 0.003861 ± 2e-06
334.02 K, 447.3 kPa | 0.005679 ± 2e-06
338.69 K, 642 kPa | 0.003862 ± 2e-06
338.92 K, 253.5 kPa | 0.01062 ± 5e-06
338.96 K, 347.5 kPa | 0.007608 ± 3e-06
338.96 K, 563.3 kPa | 0.004486 ± 2e-06
339.15 K, 455.7 kPa | 0.00568 ± 2e-06
343.8 K, 257.7 kPa | 0.01062 ± 5e-06
343.94 K, 655.2 kPa | 0.003863 ± 2e-06
343.99 K, 353.6 kPa | 0.00761 ± 3e-06
344.11 K, 574.3 kPa | 0.004487 ± 2e-06
344.27 K, 464.1 kPa | 0.005681 ± 2e-06
348.97 K, 359.5 kPa | 0.007611 ± 3e-06
349.04 K, 261.8 kPa | 0.01062 ± 5e-06
349.14 K, 668.4 kPa | 0.003864 ± 2e-06
349.17 K, 585 kPa | 0.004488 ± 2e-06
349.21 K, 472.1 kPa | 0.005682 ± 2e-06
353.32 K, 364.5 kPa | 0.007613 ± 3e-06
353.39 K, 679.1 kPa | 0.003864 ± 2e-06
353.64 K, 265.6 kPa | 0.01063 ± 5e-06
354.39 K, 596 kPa | 0.004489 ± 2e-06
354.73 K, 481 kPa | 0.005684 ± 2e-06

Reference: the NIST ThermoML archive (doi:10.1021/je034084d)
